Holding throughout (test): Bliss excess, mean over the matrix (fraction); higher = more synergy
Test [1] deals with 23132-87 (Gastric Carcinoma). The essentials:
(§1)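 Bliss excess equals the observed combination effect minus the expected value EA + EB − EA·EB, where EA and EB are the effects of each agent alone. Combination Emax is the second-highest inhibition within the matrix. Inhibition was scaled from CellTiter-Glo 2.0 luminescence, with 0 set by vehicle wells and 1 by blank wells, after 72 hours of two-drug dosing of cells plated in 1536-well plates.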

The test system of the next test is A2058 (Melanoma). The essentials:
as §1

Test [2] has as its system COLO-680N (Esophageal Squamous Cell Carcinoma). The essentials:
as §1

The subject of test [3] is HCT-15 (Colorectal Carcinoma). The essentials:
as §1

In test [4] the test system is HEC-1 (Endometrial Carcinoma). The essentials:
as §1

Test [5] deals with KE-37 (T-Lymphoblastic Leukemia). In a few lines: as §1
The subject of test [6] is LB996-RCC (Kidney Carcinoma). The essentials:
as §1

The test system of another test is LN-229 (Glioblastoma). The essentials: as §1
In test [7] the test system is MKN45 (Gastric Carcinoma). In a few lines:
as §1

For test [8], the system named is NCI-H23 (Lung Adenocarcinoma). In a few lines: as §1
For test [9], the system named is PANC-03-27 (Pancreatic Carcinoma). The essentials:
as §1

The subject of test [10] is PC-3_[JPC-3] (Lung Adenocarcinoma). In a few lines:
as §1

Test [11] concerns RCM-1 (Colorectal Carcinoma). The essentials: as §1
Test [12] has as its system RERF-GC-1B (Gastric Carcinoma). In a few lines:
as §1

The test system of test [13] is RERF-LC-Sq1 (Squamous Cell Lung Carcinoma). In a few lines:
as §1

Test [14] concerns RKN (Other Solid Carcinomas). The essentials:
as §1

The subject of a further test is SF539 (Glioblastoma). In a few lines:
as §1

Test [15] concerns SU-DHL-10 (B-Cell Non-Hodgkin's Lymphoma). The essentials:
as §1

Test [16] concerns TE-8 (Esophageal Squamous Cell Carcinoma). The essentials:
as §1

In another test the test system is WM793B (Melanoma). The essentials: as §1

For seven compounds, Bliss excess results are on record in the supplement of paper PMC11061612.

In the case of `CN(C)CCCOc1ccc(-c2ccc3ncc4c(c3c2)n(C2CCOCC2)c(=O)n4C)cn1` [AZD0156] + C=CCn1c(=O)c2cnc(Nc3ccc(N4CCN(C)CC4)cc3)nc2n1-c1cccc(C(C)(C)O)n1 [AZD1775] (first compound max 1 µM, partner max 1 µM), the Bliss excess in test [1] is 0.0164; with A2058 (Melanoma), -0.0313; in test [2], -0.0252; in test [3], 0.0622; in test [4], -0.0257; in test [5], 0.0241. In addition, the Bliss excess in [6] is -0.0219; in the test with LN-229 (Glioblastoma) it was -0.0831; in [7], -0.0774; in test [8], -0.0406; in test [9], -0.063; in test [10] it was -0.0018. In addition, the Bliss excess is -0.0621 in [11]; -0.0318 in test [12]; 0.0224 in test [13]; -0.0683 in test [14]; -0.0023 with SF539 (Glioblastoma); -0.0088 in [15]. For the same compound, the Bliss excess in test [16] is -0.0104; in the test with WM793B (Melanoma) it was -0.0081.

For `CN(C)CCCOc1ccc(-c2ccc3ncc4c(c3c2)n(C2CCOCC2)c(=O)n4C)cn1` [AZD0156] + CCN(CCO)CCCOc1ccc2c(Nc3cc(CC(=O)Nc4cccc(F)c4)[nH]n3)ncnc2c1 [AZD2811] (first compound max 1 µM, 7x7, partner max 1 µM), the Bliss excess in test [1] was -0.025; in the test on A2058 (Melanoma), -0.0201; in test [2] it was -0.0404; in [3] it was 0.0156; in test [4] it was -0.0152; in test [5], -0.0173. The Bliss excess in test [6] is 0.0375; in the test with LN-229 (Glioblastoma) it was -0.0331; in test [7] it was 0.0034; in test [8] it was -0.0119; in test [9], -0.0519; in test [10], -0.0524. Also, the Bliss excess is -0.0241 in [11]; 0.0292 in [12]; 0.0325 in test [13]; -0.0417 in test [14]; -0.0196 in the test on SF539 (Glioblastoma); -0.0813 in test [15]. The Bliss excess in test [16] is -0.0073; with WM793B (Melanoma), 0.0212.

Take `CN(C)CCCOc1ccc(-c2ccc3ncc4c(c3c2)n(C2CCOCC2)c(=O)n4C)cn1` [AZD0156] + C[C@@H]1COCCN1C2=NC(=NC(=C2)C3(CC3)[S@](=N)(=O)C)C4=C5C=CNC5=NC=C4 [AZD6738] (first compound max 1 µM, 7x7, partner max 10 µM): the Bliss excess in test [1] is 0.0549; in the test with A2058 (Melanoma), -0.0135; in test [2], -0.0311; in [3] it was 0.0663; in test [4], -0.004; in test [5], 0.0459. In addition, the Bliss excess in [6] was 0.0089; in the test on LN-229 (Glioblastoma), -0.0412; in test [7], 0.0072; in test [8] it was -0.0218; in test [9] it was -0.0078; in test [10], -0.006. The Bliss excess in test [11] was -0.0343; in test [12], 0.0249; in test [13] it was 0.0544; in test [14], -0.0126; in the test on SF539 (Glioblastoma), 0.0274; in [15], 0.0699. Also, the Bliss excess in [16] was 0.0087; in the test with WM793B (Melanoma) it was 0.0342.

As to `CN(C)CCCOc1ccc(-c2ccc3ncc4c(c3c2)n(C2CCOCC2)c(=O)n4C)cn1` [AZD0156] + O=C(c1cc(Cc2n[nH]c(=O)c3ccccc23)ccc1F)N1CCN(C(=O)C2CC2)CC1 [Olaparib] (first compound max 3 µM, partner max 3 µM), the Bliss excess in test [1] is 0.198; with A2058 (Melanoma), 0.151; in test [2], -0.0076; in test [3], 0.007; in test [4] it was -0.0173; in test [5], 0.0951. Moreover, the Bliss excess in test [6] was 0.0071; in the test on LN-229 (Glioblastoma), -0.0258; in test [7], -0.0028; in [8], 0.0049; in test [9], -0.0236; in [10] it was -0.0349. Moreover, the Bliss excess in test [11] was 0.003; in test [12], -0.0079; in [13] it was 0.0396; in [14] it was 0.0042; with SF539 (Glioblastoma), 0.133; in test [15], 0.11. Moreover, the Bliss excess in the test with WM793B (Melanoma) is 0.0206.

As for `C=CCn1c(=O)c2cnc(Nc3ccc(N4CCN(C)CC4)cc3)nc2n1-c1cccc(C(C)(C)O)n1` [AZD1775] + C1CN(CCC1(C(=O)N[C@@H](CCO)C2=CC=C(C=C2)Cl)N)C3=NC=NC4=C3C=CN4 [Capivasertib] (first compound max 3 µM, partner max 3 µM), the Bliss excess in test [1] is -0.0207; in the test with A2058 (Melanoma), 0.0217; in [2] it was 0.0133; in test [3] it was 0.0159; in test [4] it was -0.0424; in [5], -0.0132. The Bliss excess in test [6] was -0.0587; in the test with LN-229 (Glioblastoma), -0.062; in [7] it was -0.0736; in test [8], -0.0135; in test [9] it was -0.0573; in [10], -0.0534. For the same compound, the Bliss excess in test [11] was 0.0141; in test [12], -0.0632; in test [13], -0.0483; in test [14] it was -0.0476; with SF539 (Glioblastoma) it was -0.0878; in [15], 0.0484. In addition, in the test with WM793B (Melanoma), the Bliss excess was -0.0157.

With `C=CCn1c(=O)c2cnc(Nc3ccc(N4CCN(C)CC4)cc3)nc2n1-c1cccc(C(C)(C)O)n1` [AZD1775] + C[C@@H]1COCCN1C2=NC(=NC(=C2)C3(CC3)[S@](=N)(=O)C)C4=C5C=CNC5=NC=C4 [AZD6738] (first compound max 1 µM, partner max 10 µM), the Bliss excess in test [1] was found to be 0.083; in the test with A2058 (Melanoma) it was 0.0553; in test [2], 0.0196; in test [3], 0.0483; in test [4] it was 0.0694; in test [5] it was 0.0552. In addition, the Bliss excess in test [6] was 0.011; in the test on LN-229 (Glioblastoma), -0.0069; in test [7], -0.0711; in [8], 0.0238; in [9], -0.0426; in test [10], -0.0732. Besides, the Bliss excess in [11] is 0.0014; in [12], 0.0634; in test [13] it was 0.0211; in [14], -0.0029; with SF539 (Glioblastoma), 0.0027; in test [15], 0.0505. For the same compound, the Bliss excess in [16] is 0.0126; in the test on WM793B (Melanoma), -0.034.

`C=CCn1c(=O)c2cnc(Nc3ccc(N4CCN(C)CC4)cc3)nc2n1-c1cccc(C(C)(C)O)n1` [AZD1775] + O=C(c1cc(Cc2n[nH]c(=O)c3ccccc23)ccc1F)N1CCN(C(=O)C2CC2)CC1 [Olaparib] (first compound max 1 µM, partner max 10 µM): the Bliss excess is -0.0282 in test [1]; -0.0049 in the test on A2058 (Melanoma); -0.0482 in [2]; -0.0674 in test [3]; 0.0039 in test [4]; 0.0513 in test [5]. Also, the Bliss excess with LN-229 (Glioblastoma) is -0.0851; in [7] it was -0.005; in test [8] it was -0.035; in test [9], -0.032; in [10] it was -0.0515; in [11], -0.0861. Further, the Bliss excess in [12] was -0.0124; in test [13] it was -0.0211; in [14], -0.0138; in the test with SF539 (Glioblastoma) it was 0.0258; in test [15] it was -0.0229; in test [16], -0.03. Also, the Bliss excess in the test on WM793B (Melanoma) was -0.0236.
